Target: T1, Carboxy-terminal domain RNA polymerase II polypeptide A small phosphatase 1 (Homo sapiens, UniProt Q9GZU7)
T1 sequence (Q9GZU7 whole entry): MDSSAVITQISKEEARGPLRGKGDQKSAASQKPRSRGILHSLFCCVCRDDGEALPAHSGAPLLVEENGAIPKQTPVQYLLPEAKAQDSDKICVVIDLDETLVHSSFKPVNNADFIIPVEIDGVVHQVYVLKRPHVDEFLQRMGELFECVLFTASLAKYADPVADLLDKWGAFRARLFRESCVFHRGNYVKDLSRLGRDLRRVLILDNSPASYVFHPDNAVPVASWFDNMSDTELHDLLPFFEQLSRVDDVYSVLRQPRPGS
Assay: Inhibition of wild type human SCP1 using pNPP as substrate incubated for 0.5 to 18 hrs followed by substrate addition by absorbance based analysis

Compound: O=C(C1=CC2=C(CCC2)S1(=O)=O)N1CCN(S(=O)(=O)c2ccc(F)cc2)CC1
- IC50: 220 µM

From BindingDB's records for doi:10.1021/acs.jmedchem.1c01655 (University of California San Diego, 2022)
